Experimental data published in patent publication US7238727B2, “Compositions for improving lipid metabolism” (Chugai Seiyaku Kabushiki Kaisha, priority 2000, dated 2007).

What was measured:
Assay type in all cases: in vivo
[1] = tested on: matured rat models fed with high-fat diets; test: Peritesticular adipose tissue weight in rats fed a high-fat diet; details: for adipose tissue weight less than that of casein+lard group / mean adipose tissue weight relative to casein+lard group: 3.0% L-valine + 8.4% lard; for peritesticular adipose tissue weight: feed with 3.0% L-valine + 8.4% lard, mean±standard deviation, n=3
Experimental: To evaluate the effects of valine on lipid metabolism, the effects of the administration of L-valine containing feeds were examined on matured rat models fed with high-fat diets.
18 Crj:CD(SD) IGS male rats aged 12 weeks (body weight: 420 to 464 g, 443 g on average) were pre-fed for 5 days (not more than 4 animals/cage, temperature: 20 to 26° C., humidity: 30 to 70%, illumination: 8:00 to 20:00). During the pre-feeding period, the animals were maintained on a feed (constant feeding) and water (using a water supplier) as desired.
(§1) After the completion of the pre-feeding, the animals were divided into 6 groups depending on feed and administration period. Rats of valine+lard groups were fed with a solid feed prepared by adding 8.4% lard (CAMERIA: manufactured by Romi Smilfood B. V.) and 3.0% L-valine (JP, manufactured by Ajinomoto Co., Inc.) to a conventional feed (CMF: manufactured by Oriental Yeast Co., Ltd.) for 2 or 4 weeks. Animals of casein+lard groups (i.e., control groups) were fed with a solid feed prepared by adding 8.4% lard and 3.0% milk-origin casein (manufactured by Wako Pure Chemical Industries, Ltd.) to the conventional feed (CMF: manufactured by Oriental Yeast Co., Ltd.) for 2 or 4 weeks. Animals of normal food groups were fed with a solid feed which was the conventional feed (CMF: manufactured by Oriental Yeast Co., Ltd.) for 2 or 4 weeks. During the experimental period, the rats of each group were maintained on the feed (constant feeding) and water (using a water supplier) as desired. Each group had 3 rats which were fed in a single cage (temperature: 20 to 26° C., humidity: 30 to 70%, illumination: 8:00 to 20:00) throughout the experimental period.
(§2) After 2 or 4 weeks, the blood samples of the animals of each group were collected from the abdominal aorta and then the animals were sacrificed by bleeding under etherization followed by autopsy. As intraperitoneal adipose tissue, the adipose tissue around the left testis and epididymis was weighed. The collected blood samples were subjected to a serobiochemical examination and the like.

[2] = tested on: matured rat models fed with high-fat diets; test: Intraperitoneal adipose tissue area by abdominal CT scanning; details: 4 weeks-feeding group
Source text: as §1
22 days after the initiation of the experiment, one rat of each of the 4 weeks-feeding groups was subjected to the abdominal CT scanning (slice width: 5 mm) under anesthesia with Nembutal. From the CT image thus obtained, the intraperitoneal adipose tissue area was determined as the mean of the intraperitoneal adipose-containing areas in posterior 4 slices from the sites where no kidney was observed.

[3] = tested on: matured rat models fed with high-fat diets; test: Serobiochemical examination of rats fed a high-fat diet
Source text: as §1, §2

[4] = tested on: rabbit atherosclerotic model; test: Plaque formation in aortic arch specimens; parameters: key to plaque formation in specimens of aortic arch: +: visible slight plaque formation; ++: visible moderate plaque formation; −: no visible plaque formation; details: 13 weeks; for plaque formation in specimens of aortic arch: feed with 0.2% cholesterol + 3.0% L-valine
Experimental: (§3) In order to evaluate the efficacy of valine on atherosclerosis and fatty liver, an L-valine containing feed was administered to a rabbit atherosclerotic model and its effect was investigated. Nine New Zealand White male rabbits aged 8 weeks (average body weight, 2.06 kg) were divided into three groups (n=3) by feed and fed for 13 weeks (temperature, 20 to 26° C.; humidity, 30 to 70%; illumination, 8:00 to 20:00). The untreated group was given an ordinary feed (NOSAN feed for laboratory animals, LABOR STOCK, manufactured by Nihon Nosan Kogyo, K.K.). As for the atherosclerotic model, the control group was given the ordinary feed plus 0.2% cholesterol (manufactured by Wako Pure Chemical Industries, Ltd.), and the valine group was given the ordinary feed plus 0.2% cholesterol plus 3.0% L-valine (JP, manufactured by Ajinomoto Co., Inc.). Throughout the experiment, the rabbits of each group were maintained on the feed (constant feeding) and water (using a water supplier) as desired. After 13 weeks, blood samples were collected from the abdominal aorta of the animals of each group under etherization and the animals were then sacrificed by bleeding. By subsequent autopsy, the degree of atherosclerotic lesion (plaque formation) in thoracic aorta and the degree of fatty liver were compared. Sections of the thoracic aorta and the liver were also prepared and examined histopathologically for intimal thickening and the formation of fat droplets.

[5] = tested on: rabbit atherosclerotic model; test: Intimal thickening in HE stained thoracic aorta sections; details: 0.2% cholesterol + 3.0% L-valine, 13 weeks
Experimental: as §3, with “Nine” for “In order to evaluate the efficacy of valine on atherosclerosis and fatty liver, an L-valine containing feed was administered to a rabbit atherosclerotic model and its effect was investigated. Nine”, “droplets. Sections of the thoracic aorta were HE stained (hematoxylin-eosin stained).” for “droplets.”

[6] = tested on: rabbit atherosclerotic model; test: Fatty liver by naked eye and HE stained liver sections; details: 0.2% cholesterol + 3.0% L-valine, 13 weeks
Experimental: as §3, with “Nine” for “In order to evaluate the efficacy of valine on atherosclerosis and fatty liver, an L-valine containing feed was administered to a rabbit atherosclerotic model and its effect was investigated. Nine”

[7] = 2 weeks feeding, mean±standard deviation, n=3
[8] = 4 weeks feeding, mean±standard deviation, n=3

CC(C)[C@H](N)C(=O)O [valine, L-valine]
adipose tissue weight compared with normal food group ([1]; 2 weeks feeding): smaller than that of the normal food group | adipose tissue weight less than that of casein+lard group ([1]; 2 weeks feeding): 30% | mean adipose tissue weight relative to casein+lard group ([1]; 2 weeks feeding): about 0.70 times | peritesticular adipose tissue weight ([1]; 2 weeks feeding): 2.55 ± 0.38 g | adipose tissue weight compared with normal food group ([1]; 4 weeks feeding): smaller than that of the normal food group | adipose tissue weight less than that of casein+lard group ([1]; 4 weeks feeding): 26% | mean adipose tissue weight relative to casein+lard group ([1]; 4 weeks feeding): about 0.74 times | peritesticular adipose tissue weight ([1]; 4 weeks feeding): 2.92 ± 0.40 g | increase in the adipose tissue weight ([1]; both 2 weeks and 4 weeks feeding, feed intake almost the same): inhibited | increase in the intraperitoneal adipose tissue area versus casein+lard group ([2]; CT): more inhibited | intraperitoneal adipose tissue area ([2]; CT 22 days after initiation, n=1): 3.2 cm^2 | intraperitoneal adipose tissue relative to casein+lard group ([2]; CT, n=1): about 0.65 times | mean free fatty acid level relative to casein+lard group ([3]; 2 weeks feeding): about 0.73 times | mean lipid peroxide level relative to casein+lard group ([3]; 2 weeks feeding): about 0.42 times | mean triacylglycerol level relative to casein+lard group ([3]; 2 weeks feeding): about 0.54 times | mean β-lipoprotein level relative to casein+lard group ([3]; 2 weeks feeding): about 0.53 times | mean serum free fatty acid level [3, 7]: 0.35±0.06 mEq/L | mean serum lipid peroxide level [3, 7]: 1.1 ± 0.7 nmol/dL | mean serum triacylglycerol level [3, 7]: 52.0 ± 21.9 mg/dL | mean serum β-lipoprotein level [3, 7]: 33.3 ± 14.5 mg/dL | mean free fatty acid level relative to casein+lard group ([3]; 4 weeks feeding): about 0.82 times | mean triacylglycerol level relative to casein+lard group ([3]; 4 weeks feeding): about 0.60 times | mean β-lipoprotein level relative to casein+lard group ([3]; 4 weeks feeding): about 0.62 times | mean serum free fatty acid level [3, 8]: 0.36±0.11 mEq/L | mean serum triacylglycerol level [3, 8]: 67.7 ± 33.5 mg/dL | mean serum β-lipoprotein level [3, 8]: 41.0 ± 10.8 mg/dL | plaque formation compared with control group ([4]; 0.2% cholesterol + 3.0% L-valine, n=3): no plaque formation was visible, or plaque formation was visible but to a lesser extent than in the control group | plaque formation in specimens of aortic arch ([4]; animal 1): − | plaque formation in specimens of aortic arch ([4]; animal 2): − | plaque formation in specimens of aortic arch ([4]; animal 3): + | intimal thickening of thoracic aorta [5]: intimal thickening was hardly visible | yellowing of the liver (fatty liver), naked eye [6]: no yellowing of the liver was observed, or yellowing of the liver was visible but to a lesser extent than in the control group | fat droplets and swelling of hepatocytes ([6]; HE stained liver sections): hepatocytes contained such a small number of fat droplets that they experienced no visible swelling
